One assay deals with Histaminergic H1 (Homo sapiens, UniProt P35367). As to the kind of experiment: competitive radioligand binding, Histaminergic H1. The note with it: compound concentration of 1 μM; read-out: radio-labelled ligand displacement, Histaminergic H1. The method, then: (§1) Profiles of pharmacological activity of thieno-pyrrolo[3,2-c]pyridines of the general formula 1. Biological activity test of compounds of the general formula 1 was carried out in the setting of competitive radioligand binding [I. Okun, S. Tkachenko, A. Khvat, et al., Current Alzheimer Research, 7(2), 97-112 (2010)], using a wide range of therapeutic targets including G-protein coupled receptors (GPCR), ion channels and neuromediator transporters. The tested activity was determined by quantitative measurement of radio-labelled ligand displacement by tested compounds of the general formula 1 at their concentration of 1 μM.
Chain of Histaminergic H1 (P35367 whole entry): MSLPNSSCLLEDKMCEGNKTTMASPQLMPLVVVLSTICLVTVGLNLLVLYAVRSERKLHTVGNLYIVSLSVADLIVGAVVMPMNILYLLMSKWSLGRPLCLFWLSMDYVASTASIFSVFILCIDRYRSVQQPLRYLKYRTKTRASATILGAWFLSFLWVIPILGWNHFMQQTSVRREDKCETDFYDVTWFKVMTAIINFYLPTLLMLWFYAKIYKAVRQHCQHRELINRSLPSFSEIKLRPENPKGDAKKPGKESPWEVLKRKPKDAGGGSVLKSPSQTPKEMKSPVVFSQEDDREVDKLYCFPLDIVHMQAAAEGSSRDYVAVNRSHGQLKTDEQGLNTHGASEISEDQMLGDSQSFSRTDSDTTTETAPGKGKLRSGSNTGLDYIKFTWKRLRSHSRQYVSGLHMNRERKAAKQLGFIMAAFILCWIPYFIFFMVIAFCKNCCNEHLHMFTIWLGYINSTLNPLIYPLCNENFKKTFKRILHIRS

Assay [1] relates to Therapeutic targets (Adrenergic, Dopaminergic, Histaminergic, Serotoninergic). As to the kind of experiment: Profiles of pharmacological activity in competitive radioligand binding (whole panel). The note with it: 1 μM, grades not defined. The method, then: as §1
A further assay has as its target Dopaminergic D2L (Homo sapiens, UniProt P14416). As to the kind of experiment: competitive radioligand binding, Dopaminergic D2L. The note with it: compound concentration of 1 μM; read-out: radio-labelled ligand displacement, Dopaminergic D2L. The method, then: as §1
For the next assay, the target named is T1, Serotoninergic 5-HT1A (Homo sapiens, UniProt P08908).
T1 sequence (P08908 1-422): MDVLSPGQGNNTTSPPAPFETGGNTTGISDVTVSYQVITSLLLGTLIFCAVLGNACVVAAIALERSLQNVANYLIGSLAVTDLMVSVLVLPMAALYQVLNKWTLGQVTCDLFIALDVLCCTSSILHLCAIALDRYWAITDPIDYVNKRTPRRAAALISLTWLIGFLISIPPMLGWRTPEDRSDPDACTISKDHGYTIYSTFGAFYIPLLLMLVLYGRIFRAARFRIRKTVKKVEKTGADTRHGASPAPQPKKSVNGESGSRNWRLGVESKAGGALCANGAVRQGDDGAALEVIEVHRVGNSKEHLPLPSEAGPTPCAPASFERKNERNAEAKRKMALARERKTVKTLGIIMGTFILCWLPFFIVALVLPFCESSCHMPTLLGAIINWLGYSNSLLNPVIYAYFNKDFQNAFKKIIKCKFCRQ
As to the kind of experiment: competitive radioligand binding, Serotoninergic 5-HT1A. The note with it: compound concentration of 1 μM; read-out: radio-labelled ligand displacement, Serotoninergic 5-HT1A. The method, then:
as §1

The next assay addresses Histaminergic H2 (Homo sapiens, UniProt P25021). As to the kind of experiment: competitive radioligand binding, Histaminergic H2. The note with it: compound concentration of 1 μM; read-out: radio-labelled ligand displacement, Histaminergic H2. The method, then:
as §1

In another assay the target is Serotoninergic 5-HT6 (Homo sapiens, UniProt P50406). As to the kind of experiment: competitive radioligand binding, Serotoninergic 5-HT6. Conditions: compound concentration of 1 μM; read-out: radio-labelled ligand displacement, Serotoninergic 5-HT6. The method, then: as §1
Chain of Serotoninergic 5-HT6 (P50406 whole entry): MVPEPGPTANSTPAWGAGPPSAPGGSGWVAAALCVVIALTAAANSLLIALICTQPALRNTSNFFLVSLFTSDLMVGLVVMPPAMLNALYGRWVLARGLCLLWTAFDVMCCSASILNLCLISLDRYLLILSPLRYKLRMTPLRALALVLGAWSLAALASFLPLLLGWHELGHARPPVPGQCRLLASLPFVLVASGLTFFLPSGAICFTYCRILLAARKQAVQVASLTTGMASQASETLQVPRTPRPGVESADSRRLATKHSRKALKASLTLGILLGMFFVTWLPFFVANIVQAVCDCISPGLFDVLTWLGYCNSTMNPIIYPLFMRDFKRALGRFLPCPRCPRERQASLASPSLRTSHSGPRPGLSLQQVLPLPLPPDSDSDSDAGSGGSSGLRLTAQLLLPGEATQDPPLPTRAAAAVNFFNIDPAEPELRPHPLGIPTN
In a further assay the target is Dopaminergic D3 (Homo sapiens, UniProt P35462). As to the kind of experiment: competitive radioligand binding, Dopaminergic D3. The note with it: compound concentration of 1 μM; read-out: radio-labelled ligand displacement, Dopaminergic D3. The method, then:
as §1

The target of another assay is Dopaminergic D2S (Homo sapiens, UniProt P14416). As to the kind of experiment: competitive radioligand binding, Dopaminergic D2S. The note with it: compound concentration of 1 μM; read-out: radio-labelled ligand displacement, Dopaminergic D2S. The method, then: as §1
Chain of Dopaminergic D2S (P14416 1-414 isoform P14416-2): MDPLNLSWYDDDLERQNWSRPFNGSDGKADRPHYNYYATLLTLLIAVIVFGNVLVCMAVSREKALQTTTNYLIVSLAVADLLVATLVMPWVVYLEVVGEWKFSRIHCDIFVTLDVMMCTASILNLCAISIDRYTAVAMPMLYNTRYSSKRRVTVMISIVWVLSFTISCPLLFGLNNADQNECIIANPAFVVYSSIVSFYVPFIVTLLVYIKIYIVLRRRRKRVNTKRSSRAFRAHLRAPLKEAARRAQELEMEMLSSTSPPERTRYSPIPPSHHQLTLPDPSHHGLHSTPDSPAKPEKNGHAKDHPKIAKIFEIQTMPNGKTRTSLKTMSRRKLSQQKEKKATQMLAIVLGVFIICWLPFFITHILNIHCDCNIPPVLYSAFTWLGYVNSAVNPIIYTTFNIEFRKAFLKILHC
The test system of assay [2] is male mice of BALB/c line. As to the kind of experiment: Porsolt's Forced Swim Test. The assay is classed as in vivo. Conditions: after 4 days injections in dose 1 mg/kg, last 5 minutes of the test. The method, then: Antidepressant action of antagonists of the general formula 1 in Porsolt's Forced Swim Test. Test apparatus represented a plastic vessel filled with water up to height of 18 cm at 20-22° C. Experiments were carried out in aged male mice of BALB/c line weighing 20-24 g.
Mice were placed in water and for 15 minutes duration of immobile hanging in water so called behavioural despaire, which is considered to be a measure of depressively-like state, was registered. The last 5 minutes of the test were used for analysis. Automated computerized detection of motion with videosystem and Any-maze program were used in the test.

Another assay deals with Mice of SHK line. As to the kind of experiment: Prepulse inhibition of startle response in mice (Apomorphine). Conditions: 1 mg/kg, subcutaneously 60 minutes before the test.
For assay [3], the system named is male mice of BALB/c line. As to the kind of experiment: Mice behavior in tail suspension test. The assay is classed as in vivo. The note with it: after 4 days injections in dose of 0.1 mg/kg, 6 minutes. The method, then:
Antidepressant action of compounds of the general formula 1 in test “Mice behavior in tail suspension test”. Experiments were carried out in aged male mice of BALB/c line weighing 20-24 g. Mice were suspended by tail with scotch tape on holder over horizontal surface at height of about 40 cm, and for 6 minutes of total duration of complete immobility episodes which is considered to be a measure of depressively-like state was registered. Automated computerized detection of motion with videosystem and Any-maze program were used in test.

Assay [4] deals with male mice of BALB/c line. As to the kind of experiment: Passive Avoidance of mice in Shuttle Chamber (memory disturbed by Scopolamine). The assay is classed as in vivo. The note with it: intraperitoneally 30 minutes before training, in combination with Scopolamine. The method, then: Nootropic action (enhancement of memory disturbed by Scopolamine) of compounds of the general formula 1 in test “Passive Avoidance of mice in Shuttle Chamber”. Shuttle chamber (Ugo Basile, Italy) consisted of two sections was used. […] Sections were connected through a hole which could be overlapped by vertical door. The floor was made of transverse metal bars on which DC current impulses could be fed. Experiments were carried out in aged male mice of BALB/c line weighing 20-24 g. On the first day of experiment 30 minutes before training mice were injected intraperitoneally with physiological solution, (0.3 mg/kg) or Scopolamine in combination with compound 3.6(1).HCl, or Scopolamine in combination with compound 2.5(1).HCl. Each group consisted of 8 animals. Animals were placed in light section, and latent period of the first entry into the dark chamber was registered. Then the vertical door was closed and the animal was punished by 0.6 mA DC current for 3 seconds. After that the animal was taken back to its home cage. In 22-24 hours the same animal was placed again in light section of shuttle chamber and latent period of its first entry into dark section, total time of its stay in light section and number of entries into dark section was registered. Each monitoring lasted for 5 minutes. […]

Structures are written as SMILES. Where a name gives a salt, the structure may show the parent alone.

Results on nine compounds are retold here after US20130267551A1, “SUBSTITUTED HYDROGENATED THIENO-PYRROLO[3,2-C]PYRIDINE, LIGANDS, A PHARMACEUTICAL COMPOSITION AND A METHOD FOR USING THE ABOVE” (ALLA CHEM, LLC, priority 2010, published 2013).

Chain of Histaminergic H2 (P25021 whole entry): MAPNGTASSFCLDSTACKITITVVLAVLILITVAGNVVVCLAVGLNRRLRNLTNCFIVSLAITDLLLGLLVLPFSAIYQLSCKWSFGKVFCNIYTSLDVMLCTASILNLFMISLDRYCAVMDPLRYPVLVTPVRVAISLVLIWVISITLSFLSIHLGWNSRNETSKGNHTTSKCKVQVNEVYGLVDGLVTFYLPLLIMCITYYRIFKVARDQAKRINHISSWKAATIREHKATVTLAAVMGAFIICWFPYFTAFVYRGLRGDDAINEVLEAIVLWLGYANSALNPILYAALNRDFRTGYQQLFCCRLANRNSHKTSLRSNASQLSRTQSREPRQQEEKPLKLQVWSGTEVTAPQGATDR
Chain of Dopaminergic D2L (P14416 whole entry): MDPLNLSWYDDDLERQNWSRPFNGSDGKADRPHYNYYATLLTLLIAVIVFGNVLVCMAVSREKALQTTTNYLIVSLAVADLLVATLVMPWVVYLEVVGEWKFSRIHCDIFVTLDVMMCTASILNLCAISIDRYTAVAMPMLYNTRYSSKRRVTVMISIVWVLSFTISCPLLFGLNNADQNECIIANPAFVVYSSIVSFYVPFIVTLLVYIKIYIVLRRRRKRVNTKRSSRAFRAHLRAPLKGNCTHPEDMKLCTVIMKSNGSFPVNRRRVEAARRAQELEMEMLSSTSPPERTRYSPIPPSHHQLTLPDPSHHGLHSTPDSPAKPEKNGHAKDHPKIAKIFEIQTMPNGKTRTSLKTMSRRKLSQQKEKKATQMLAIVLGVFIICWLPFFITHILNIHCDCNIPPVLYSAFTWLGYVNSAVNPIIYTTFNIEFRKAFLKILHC
Chain of Dopaminergic D3 (P35462 whole entry): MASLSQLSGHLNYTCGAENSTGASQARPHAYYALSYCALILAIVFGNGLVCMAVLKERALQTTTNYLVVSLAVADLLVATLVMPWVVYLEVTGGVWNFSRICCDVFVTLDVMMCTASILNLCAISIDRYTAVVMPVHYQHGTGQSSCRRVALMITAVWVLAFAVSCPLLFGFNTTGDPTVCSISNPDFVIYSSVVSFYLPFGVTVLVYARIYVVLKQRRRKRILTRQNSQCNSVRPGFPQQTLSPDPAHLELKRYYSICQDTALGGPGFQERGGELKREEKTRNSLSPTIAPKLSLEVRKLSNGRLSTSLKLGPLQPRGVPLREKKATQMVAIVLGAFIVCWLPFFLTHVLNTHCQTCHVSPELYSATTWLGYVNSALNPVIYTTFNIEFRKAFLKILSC

As to `Cc1cc2c(s1)c1c(n2-c2cccc(F)c2)CCN(C)C1` [2.4(3)•HCl, 2,7-dimethyl-4-(3-fluorophenyl)-5,6,7,8-tetrahydro-4H-thieno[2′,3′:4,5]pyrrolo[3,2-c]pyridine], the inhibition at 1 µM on Histaminergic H1 came out at 38%; at Dopaminergic D2L, 4%; on Serotoninergic 5-HT1A, 3%; on Histaminergic H2, 29%; at Serotoninergic 5-HT6, 26%; on Dopaminergic D3, 11%. In addition, the inhibition at 1 µM at Dopaminergic D2S came out at 3%. Moreover, the “grade of the activity profile (poor / satisfactory / good)” value (from here on “grade … (poor / satisfactory / good)”) in assay [1] is “poor”.

Consider `Cc1cc2c(s1)c1c(n2Cc2ccccc2)CCN(C)C1.Cl` [2.5(1)•HCl, 4-Benzyl-2,7-dimethyl-5,6,7,8-tetrahydro-4H-thieno[2′,3′:4,5]pyrrolo[3,2-c]pyridine hydrochloride], for which the “Antidepressant action: duration of immobile hanging in water” value in the assay with male mice of BALB/c line [2] was “decrease this index”. Further, the inhibition at 1 µM amounted to 96% on Histaminergic H1; 8% on Dopaminergic D2L; 3% on Serotoninergic 5-HT1A; 44% on Histaminergic H2; 55% on Serotoninergic 5-HT6; 16% at Dopaminergic D3. In addition, the inhibition at 1 µM on Dopaminergic D2S was -6%. The “Antipsychotic activity: disturbance of prepulse inhibition of startle caused by Apomorphine” value in the assay on Mice of SHK line is given as “prevented disturbance of prepulse inhibition of startle caused by Apomorphine”. In the assay with male mice of BALB/c line [3], the “Antidepressant action: duration of complete immobility” value was “decrease the duration of complete immobility of mice”. Further, the “Nootropic action: training disturbed by Scopolamine” value with male mice of BALB/c line [4] was “improve training disturbed by Scopolamine”.

For the compound `Cc1ccc(Cn2c3c(c4sc(Cl)cc42)C(C)N(C)C(C)C3)cn1` (stereo not shown) [2.5(4)•HCl, 4-(6-methylpyridin-3-ylmethyl)-6,7,8-trimethyl-2-chloro-5,6,7,8-tetrahydro-4H-thieno[2′,3′:4,5]pyrrolo[3,2-c]pyridine], the inhibition at 1 µM on Histaminergic H1 amounted to 70%; on Dopaminergic D2L it was 11%; on Serotoninergic 5-HT1A, 35%; at Histaminergic H2, 83%; at Serotoninergic 5-HT6, 85%; at Dopaminergic D3, 15%. Further, the inhibition at 1 µM at Dopaminergic D2S was 17%. Moreover, the “grade … (poor / satisfactory / good)” value in [1] is “satisfactory”.

Turning to `Cc1cc2c(s1)c1c(n2CCc2ccccc2)CCN(C)C1.Cl` [2.6(1)•HCl, 2,7-Dimethyl-4-(2-phenylethyl)-5,6,7,8-tetrahydro-4H-thieno[2′,3′:4,5]pyrrolo[3,2-c]pyridine hydrochloride], the inhibition at 1 µM worked out at 97% at Histaminergic H1; 76% at Dopaminergic D2L; 16% on Serotoninergic 5-HT1A; 56% on Histaminergic H2; 98% on Serotoninergic 5-HT6; 62% at Dopaminergic D3. The inhibition at 1 µM on Dopaminergic D2S was found to be 73%.

As to `CC1Cc2c(c3sc(Cl)cc3n2C#Cc2cccc(F)c2)C(C)N1C` (stereo not shown) [2.10(3)•HCl, 6,7,8-trimethyl-4-(3-fluorophenyl)ethynyl-2-chloro-5,6,7,8-tetrahydro-4H-thieno[2′,3′:4,5]pyrrolo[3,2-c]pyridine], the inhibition at 1 µM at Histaminergic H1 came out at 65%; on Dopaminergic D2L, 20%; at Serotoninergic 5-HT1A it was 6%; at Histaminergic H2 it was 33%; at Serotoninergic 5-HT6, 35%; at Dopaminergic D3, 23%. For the same compound, the inhibition at 1 µM at Dopaminergic D2S was 31%. Moreover, the “grade … (poor / satisfactory / good)” value in assay [1] is on record as “poor”.

On to `Cc1ccc(CCCn2c3c(c4scc(Cl)c42)CN(C)CC3)cn1` [2.12(5)•HCl, 7-methyl-4-[3-(6-methylpyridin-3-yl)propyl]-3-chloro-5,6,7,8-tetrahydro-4H-thieno[2′,3′:4,5]pyrrolo[3,2-c]pyridine], for which the inhibition at 1 µM was found to be 99% at Histaminergic H1; 87% on Dopaminergic D2L; 57% on Serotoninergic 5-HT1A; 96% on Histaminergic H2; 100% at Serotoninergic 5-HT6; 71% on Dopaminergic D3. For the same compound, the inhibition at 1 µM at Dopaminergic D2S was determined as 89%. For the same compound, the “grade … (poor / satisfactory / good)” value in [1] is reported as “good”.

As to `Cc1cc2c3c(n(Cc4ccccc4)c2s1)CCN(C)C3.Cl` [3.5(1)•HCl, 8-Benzyl-2,5-dimethyl-5,6,7,8-tetrahydro-4H-thieno[3′,2′:4,5]pyrrolo[3,2-c]pyridine hydrochloride], the inhibition at 1 µM on Histaminergic H1 was determined as 96%; at Dopaminergic D2L, 14%; on Serotoninergic 5-HT1A, 42%; at Histaminergic H2, 91%; on Serotoninergic 5-HT6, 85%; on Dopaminergic D3, 19%. Also, at Dopaminergic D2S, the inhibition at 1 µM came to 23%.

Turning to `Cc1cc2c3c(n(CCc4ccccc4)c2s1)CCN(C)C3.Cl` [3.6(1)•HCl, 2,5-Dimethyl-8-(2-phenylethyl)-5,6,7,8-tetrahydro-4H-thieno[3′,2′:4,5]pyrrolo[3,2-c]pyridine hydrochloride], the “Antidepressant action: duration of immobile hanging in water” value with male mice of BALB/c line [2] is on record as “decrease this index”. For the same compound, the inhibition at 1 µM turned out to be 98% on Histaminergic H1; 87% at Dopaminergic D2L; 48% at Serotoninergic 5-HT1A; 96% at Histaminergic H2; 103% on Serotoninergic 5-HT6; 73% at Dopaminergic D3. For the same compound, the inhibition at 1 µM on Dopaminergic D2S is 86%. The “Antipsychotic activity: disturbance of prepulse inhibition of startle caused by Apomorphine” value with Mice of SHK line was “prevented disturbance of prepulse inhibition of startle caused by Apomorphine”. Moreover, the “Antidepressant action: duration of complete immobility” value with male mice of BALB/c line [3] was “decrease the duration of complete immobility of mice”. Moreover, in the assay on male mice of BALB/c line [4], the “Nootropic action: training disturbed by Scopolamine” value is “improve training disturbed by Scopolamine”.

On to `Cc1cc2c3c(n(Cc4ccccc4)c2s1)CC1CCC3N1C` (stereo not shown) [3.13(1)•HCl, 9-benzyl-2,10-dimethyl-4,5,6,7,8,9-hexahydro-4,7-epiminocyclohepta[b]thieno[3,2-d]pyrrole], for which the inhibition at 1 µM stood at 88% at Histaminergic H1; 37% on Dopaminergic D2L; 19% on Serotoninergic 5-HT1A; 70% on Histaminergic H2; 67% on Serotoninergic 5-HT6; 21% on Dopaminergic D3. In addition, at Dopaminergic D2S, the inhibition at 1 µM stood at 25%. The “grade … (poor / satisfactory / good)” value in assay [1] is given as “satisfactory”.
